Experimental data taken from the supplement of paper PMC10307832.

Legend:
Experiment in all cases: relative viability (nuclei count vs DMSO), 5 days (fraction); higher = more cells survive
Doxorubicin + Dasatinib = compound: COc1cccc2c1C(=O)c1c(O)c3c(c(O)c1C2=O)C[C@@](O)(C(=O)CO)C[C@@H]3O[C@H]1C[C@H](N)[C@H](O)[C@H](C)O1 [Doxorubicin] + Cc1nc(Nc2ncc(C(=O)Nc3c(C)cccc3Cl)s2)cc(N2CCN(CCO)CC2)n1 [Dasatinib] (partner 0.075 µM)
Outline: (§1)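 Lung cancer cell lines were seeded in 1536-well plates and dosed by pin tool the next day, with either a single drug or a fixed anchor-drug dose combined with five library-drug doses (not always all listed) spaced in √10 steps. Five days later, one step fixed the cells and stained their nuclei (final 0.05% Triton X-100, 1% formaldehyde, 1 ug/ml Hoechst), and nuclei were counted on 4× images. Relative viability is the nuclei count in treated wells divided by the count in vehicle wells, and each value is the median of duplicate plates.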

BAY61-3606 + Decitabine = compound: COC1=C(C=C(C=C1)C2=CC3=NC=CN3C(=N2)NC4=C(C=CC=N4)C(=O)N)OC [BAY61-3606] + Nc1ncn([C@H]2C[C@H](O)[C@@H](CO)O2)c(=O)n1 [Decitabine] (partner 2 µM)
Outline: as §1

Doxorubicin + Luminespib = compound: COc1cccc2c1C(=O)c1c(O)c3c(c(O)c1C2=O)C[C@@](O)(C(=O)CO)C[C@@H]3O[C@H]1C[C@H](N)[C@H](O)[C@H](C)O1 [Doxorubicin] + CCNC(=O)c1noc(-c2cc(C(C)C)c(O)cc2O)c1-c1ccc(CN2CCOCC2)cc1 [Luminespib] (partner 0.01 µM)
Outline: as §1

BAY61-3606 + Bortezomib = compound: COC1=C(C=C(C=C1)C2=CC3=NC=CN3C(=N2)NC4=C(C=CC=N4)C(=O)N)OC [BAY61-3606] + CC(C)C[C@H](NC(=O)[C@H](Cc1ccccc1)NC(=O)c1cnccn1)B(O)O [Bortezomib] (partner 0.002 µM)
Outline: as §1

| Cell Line | relative viability (Doxorubicin + Dasatinib; first compound 0.001 µM) | relative viability (Doxorubicin + Dasatinib; first compound 0.003162 µM) | relative viability (Doxorubicin + Dasatinib; first compound 0.01 µM) | relative viability (Doxorubicin + Dasatinib; first compound 0.03162 µM) | relative viability (Doxorubicin + Dasatinib; first compound 0.1 µM) | relative viability (BAY61-3606 + Decitabine; first compound 0.02 µM) | relative viability (BAY61-3606 + Decitabine; first compound 0.06325 µM) | relative viability (BAY61-3606 + Decitabine; first compound 0.2 µM) | relative viability (BAY61-3606 + Decitabine; first compound 0.6325 µM) | relative viability (BAY61-3606 + Decitabine; first compound 2 µM) | relative viability (Doxorubicin + Luminespib; first compound 0.001 µM) | relative viability (Doxorubicin + Luminespib; first compound 0.003162 µM) | relative viability (Doxorubicin + Luminespib; first compound 0.01 µM) | relative viability (Doxorubicin + Luminespib; first compound 0.03162 µM) | relative viability (Doxorubicin + Luminespib; first compound 0.1 µM) | relative viability (BAY61-3606 + Bortezomib; first compound 0.02 µM) | relative viability (BAY61-3606 + Bortezomib; first compound 0.06325 µM) | relative viability (BAY61-3606 + Bortezomib; first compound 0.2 µM) | relative viability (BAY61-3606 + Bortezomib; first compound 0.6325 µM) | relative viability (BAY61-3606 + Bortezomib; first compound 2 µM) |
| --- | --- | --- | --- | --- | --- | --- | --- | --- | --- | --- | --- | --- | --- | --- | --- | --- | --- | --- | --- | --- |
| NCI-H650 | 0.432 | 0.473 | 0.503 | 0.461 | 0.355 | 0.358 | 0.302 | 0.338 | 0.385 | 0.301 | 0.694 | 0.75 | 0.78 | 0.565 | 0.627 | 0.917 | 0.766 | 0.618 | 0.681 | 0.72 |
| NCI-H661 | 0.829 | 0.846 | 0.786 | 0.412 | 0.316 | 0.594 | 0.546 | 0.546 | 0.573 | 0.534 | 0.915 | 0.909 | 0.858 | 0.574 | 0.378 | 0.896 | 0.713 | 0.767 | 0.724 | 0.556 |
| NCI-H727 | 0.271 | 0.46 | 0.305 | 0.368 | 0.329 | 0.8 | 0.8 | 0.947 | 0.981 | 0.895 | 0.286 | 0.348 | 0.225 | 0.336 | 0.308 | 0.844 | 0.822 | 0.872 | 0.856 | 0.829 |
| NCI-H838 | 0.292 | 0.284 | 0.228 | 0.307 | 0.277 | 0.448 | 0.508 | 0.47 | 0.454 | 0.393 | 0.273 | 0.35 | 0.279 | 0.255 | 0.172 | 0.954 | 0.738 | 0.748 | 0.822 | 0.501 |
| NCI-H1355 | 0.723 | 0.789 | 0.722 | 0.706 | 0.764 | 0.391 | 0.377 | 0.389 | 0.359 | 0.361 | 0.697 | 0.829 | 0.686 | 0.605 | 0.732 | 1.19 | 1.07 | 1.17 | 1.27 | 1.21 |
| NCI-H1437 | 0.369 | 0.391 | 0.3 | 0.459 | 0.152 | 0.579 | 0.602 | 0.564 | 0.563 | 0.582 | 1.01 | 1.17 | 1.12 | 0.832 | 0.553 | 0.544 | 0.502 | 0.433 | 0.536 | 0.509 |
| NCI-H1650 | 0.37 | 0.321 | 0.301 | 0.149 | 0.11 | 0.449 | 0.444 | 0.432 | 0.424 | 0.387 | 0.201 | 0.182 | 0.203 | 0.223 | 0.182 | 0.24 | 0.201 | 0.183 | 0.356 | 0.201 |
| NCI-H1651 | 0.334 | 0.39 | 0.246 | 0.154 | 0.102 | 0.621 | 0.539 | 0.555 | 0.568 | 0.481 | 0.749 | 0.954 | 0.66 | 0.305 | 0.216 | 1.03 | 0.99 | 0.911 | 0.941 | 0.952 |
